Measurements as given in patent US20200131144A1, “AMINE OR (THIO)AMIDE CONTAINING LXR MODULATORS” (Phenex-FXR GmbH, priority 2017, published 2020).

How the values were obtained:
[1] = molecular target: T1, LXRα ligand-binding domain (LBD) (Homo sapiens, UniProt Q13133); experiment: LXR Gal4 reporter transient transfection assay, mammalian two-hybrid, LBD-M2H Gal4α; format: cell-based; conditions: HEK293 cells; inverse agonist unless *
T1 construct: expressed in transfected cells; host or cells: HEK293
T1 sequence (Q13133 155-447): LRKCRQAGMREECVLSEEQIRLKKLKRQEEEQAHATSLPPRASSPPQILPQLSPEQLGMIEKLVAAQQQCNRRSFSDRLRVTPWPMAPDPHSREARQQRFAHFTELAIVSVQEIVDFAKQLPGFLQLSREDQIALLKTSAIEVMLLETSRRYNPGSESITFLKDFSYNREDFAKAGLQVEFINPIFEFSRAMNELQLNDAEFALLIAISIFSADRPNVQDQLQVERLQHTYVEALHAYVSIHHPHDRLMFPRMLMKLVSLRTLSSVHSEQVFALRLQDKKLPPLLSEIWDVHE
Procedure, shortened: (§1)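 Mammalian two-hybrid read-out: interaction of LXRα or LXRβ (full length or ligand-binding domain, NFkB activation-domain fusions) with GAL4-fused SRC1 or NCoR domains drives GAL4-responsive firefly luciferase in HEK293 cells, normalised by Renilla cotransfection. Compounds given 4 h after transfection, ≤0.2% vehicle, cells lysed after 16 h.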

[2] = molecular target: T2, LXRβ ligand-binding domain (LBD) (Homo sapiens, UniProt P55055, INS174Q); experiment: LXR Gal4 reporter transient transfection assay, mammalian two-hybrid, LBD-M2H Gal4β; format: cell-based; conditions: HEK293 cells; inverse agonist unless *
T2 construct: or LXR (amino acids 156-461); expressed in transfected cells; host or cells: HEK293
T2 sequence (P55055 with tags, fused parts or gaps INS174Q limits assumed): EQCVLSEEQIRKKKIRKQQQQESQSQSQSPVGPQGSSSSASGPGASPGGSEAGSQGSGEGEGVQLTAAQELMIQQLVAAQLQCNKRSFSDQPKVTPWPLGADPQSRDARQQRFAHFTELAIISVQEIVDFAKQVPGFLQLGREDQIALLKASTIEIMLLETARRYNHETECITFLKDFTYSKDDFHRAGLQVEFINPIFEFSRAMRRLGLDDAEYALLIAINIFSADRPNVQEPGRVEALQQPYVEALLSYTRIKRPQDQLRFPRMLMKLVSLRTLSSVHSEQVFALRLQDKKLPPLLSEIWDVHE
Procedure, shortened: as §1

Row | EC50 [1] [nM] | EC50 [2] [nM] | SMILES
1 | 100 to 1000 | < 100 | Cc1cc(C)c(C(=O)N(Cc2ccc(-c3cccc(C(C)(C)C(=O)O)c3)cc2)Cc2ccc(C(F)(F)F)o2)c(C)c1 [10/1]
2 | < 100 | < 100 | Cc1ccc2ccccc2c1C(=O)N(Cc1ccc(-c2cc(F)c(CO)c(S(=O)(=O)CC(=O)O)c2)cc1)Cc1ccc(C(F)(F)F)o1 [22/8]
3 | 100 to 1000 | 100 to 1000 | Cc1ccc2ccccc2c1C(=O)N(Cc1ccc(-c2cccc(S(=O)(=O)CC(=O)O)c2)cc1)Cc1ccc(C(F)(F)F)o1 [Example 9]
4 | < 100 | < 100 | Cc1ccc2ccccc2c1CN(Cc1ccc(-c2cccc(C(C)(C)C(=O)O)c2)cc1)Cc1ccc(C(F)(F)F)o1 [Example 24, 2-Methyl-2-(4′-((((2-methylnaphthalen-1-yl)methyl)((5-(trifluoromethyl)furan-2-yl)methyl)amino)methyl)-[1,1′-biphenyl]-3-yl)propanoic acid]
